Results from patent publication US20070276024A1, “Methods for Treating Diseases and Conditions with Inverse Agonists and for Screening for Agents Acting as Inverse Agonists” (Inverseon , Inc., priority 2003, published 2007).
Entries after “also recorded” stand apart in the source; their conditions may differ. Read-outs that look alike come from different tables or passages of the source.

How the values were obtained:
[1] = tested on: asthmatic mice; assay: Airway resistance (Raw) response to methacholine in murine model of asthma; assay type: in vivo, Balb/cJ mice
Method: Balb/cJ mice aged 6 weeks (Jackson Animal Laboratory, Bar Harbor, Maine) were housed under specific pathogen-free conditions and fed a chicken ovalbumin-free diet. The Animal Research Ethics Boards of both the University of Houston and the Baylor College of Medicine approved all experiments reported here. […] Mice were sensitized with subcutaneous injection of 25 μg of ovalbumin adsorbed to aluminum hydroxide on protocol days 2, 9, and 16. Subsequently, mice were given 50 μL of saline solution containing 25 μg of ovalbumin intranasally, on a daily basis, from protocol days 23 through 27. A group of ovalbumin-sensitized saline-challenged mice serves as controls for systemic sensitization and respiratory challenges with ovalbumin. Prior to intranasal administrations, mice were sedated with halothane vapor.
To examine the effects of duration of β-adrenergic ligand therapy on the phenotype of the murine model of asthma, the experimental drugs were administered either acutely or chronically to different groups of asthmatic mice.
Asthmatic mice on acute therapy were given a single intravenous bolus infusion of either β-adrenergic drug or normal saline on protocol day 28, 15 minutes before airway responsiveness to methacholine was determined. […] […] […] These concentrations were chosen based on those producing therapeutic effects in mice in previously published studies. The non-asthmatic mice were fed normal chow.
On protocol day 28, mice were anesthetized, tracheotomized, and connected to a computer-controlled small animal ventilator (Flexivent, Scientific Respiratory Equipment, Inc., Montreal, Canada). Airway resistance (Raw) was measured using the forced oscillation technique. The cellular composition of bronchoalveolar lavage fluid (BALF) was also determined.
To induce airway constriction, a solution containing 150 μg/mL of acetyl-α-methylcholine chloride (methacholine) (Sigma Chemical, St. Louis, Mo.) was infused intravenously at constant rates using a syringe infusion pump (Raze Scientific Instruments, Stanford, Conn.). […] Each methacholine dose was administered for 3 to 5 minutes, during which data were sampled at 1-minute intervals and then averaged.
The complex input impedance of the respiratory system was computed and the value of the real part of respiratory system impedance at 19.75 Hz was taken to reflect the magnitude of airway resistance (Raw). To examine the degree of airway responsiveness of each animal, the values for Raw as a function of methacholine doses were plotted. The largest value for Raw achieved in response to methacholine stimulation was referred to as Rawpeak. For mice that achieved a plateau in the methacholine dose-Raw response curve, the ED50 was calculated by linear interpolation using the GraphPad Prism4 (GraphPad Software, Inc.). […] The Bonferroni test was used to examine the statistical differences between experimental groups. The effects of acute drug treatments on baseline respiratory system mechanics were assessed using a two-tailed paired t-test. A value of P<0.05 was considered significant.
For these experiments, salbutamol was used for chronic administration at 0.5 mg/kg/day with a minipump and for acute administration at 0.15 mg/kg by i.v. bolus 15 minutes prior to challenge. Alprenolol was used at a high dose of 7200 ppm in chow or at a low dose of 720 ppm in chow. Carvedilol was used at a high dose of 2400 ppm in chow or at a low dose of 720 ppm in chow.
The airway resistance (Raw) is plotted as cm H2O ml^−1 s.

[2] = target: T1, β2-adrenergic receptor (Mus musculus, UniProt P18762); assay type: in vivo, mice; settings: for increase of the level of β2-adrenergic receptors over the non-treated mice: chronic administration; for Bmax (receptor density) / βmax (receptor density): lung membranes, mean±SEM, n=3-5; for Bmax (receptor density): drug treatment 15 Minutes; for βmax (receptor density): drug treatment 28 Days
T1 sequence (P18762 whole entry): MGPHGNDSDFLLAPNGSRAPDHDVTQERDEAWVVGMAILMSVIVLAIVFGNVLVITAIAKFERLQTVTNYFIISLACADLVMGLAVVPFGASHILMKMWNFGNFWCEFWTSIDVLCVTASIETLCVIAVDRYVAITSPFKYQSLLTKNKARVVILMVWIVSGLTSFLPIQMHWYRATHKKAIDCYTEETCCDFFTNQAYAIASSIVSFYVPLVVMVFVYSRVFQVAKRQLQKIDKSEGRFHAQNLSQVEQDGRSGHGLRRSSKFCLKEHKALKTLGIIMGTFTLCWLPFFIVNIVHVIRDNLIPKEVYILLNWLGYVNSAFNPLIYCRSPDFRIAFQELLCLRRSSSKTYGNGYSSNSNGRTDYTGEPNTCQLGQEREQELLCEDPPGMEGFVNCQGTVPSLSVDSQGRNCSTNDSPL
Method: β2-adrenergic receptor numbers were measured in asthmatic mice as follows. […] Mice were sacrificed and lung membranes were isolated as follows. Frozen lung tissue was homogenized in an ice-cold buffer containing 0.32 M sucrose and 25 mM Tris (pH 7.4) using a polytron (Pro 200, Pro Scientific, Inc.). The homogenate was centrifuged at 1000×g for 10 min at 4° C. The resulting supernatant was centrifuged at 40,000×g for 20 min at 4° C. The pellet was suspended in an ice-cold 25 mM Tris-HCl buffer (pH 7.4) and centrifuged at 40,000'g for 20 min at 4° C. The final pellet was suspended in 200 μL of 25 mM Tris-HCl (pH 7.4); membrane protein concentration was determined by BCA protein assay kit. […] The incubation was done at 37° C. for 2 h and terminated by rapid vacuum filtration through glass fiber filters. The filters were washed three times with 250 μL of cold wash buffer (25 mM Tris-HCl, pH 7.4) and the radioactivity determined in a counter. […] Receptor densities are expressed as femtomoles of sites per milligram of protein. Bmax is determined by nonlinear regression of the saturation binding curves.

[3] = tested on: asthmatic mice; assay: Combination of carvedilol and salbutamol on airway hyperresponsiveness; assay type: in vivo, Balb/cJ mice; settings: at the highest dose of methacholine; 28 days treatment
Method: Mice (Balb/cJ) aged 6 weeks were housed under specific pathogen-free conditions and fed a chicken ovalbumin-free diet. Mice were systemically sensitized with ovalbumin adsorbed to aluminum hydroxide. Mice were treated as follows: CAR/SAL 28D=for 28 days mice (n=6-12) were administered carvedilol (2400 ppm in animal chow) and salbutamol (subcutaneous delivery of 0.5 mg/kg/day in an Alzet #2400 osmotic minipump); NTX S/C=mice (n=6-12) no drug treatment for 28 days; CTRL=mice (n=6-12) no drug treatment for 28 days, not subsequently challenged; CARHD 28D=for 28 days mice (n=6-12) were administered carvedilol only (2400 ppm in animal chow); CARHD 28D SAL AC=for 28 days mice (n=6-12) were administered carvedilol (2400 ppm in animal chow) and 15 minutes prior to measuring airway hyperresponsiveness, salbutamol was administered at a dose of 1.2 mg.kg.
To measure airway hyperresponsiveness after 28 days, all mice except the CTRL (control) mice were challenged with ovalbumin and then all mice were anesthetized, tracheotomized, and connected to a Flexivent small animal ventilator to measure airway resistance (Raw) by the forced oscillation technique. To induce airway constriction, a solution containing 150 μg/mL of methacholine was infused using a syringe infusion pump. The methacholine infusion was started at 0.008 mL/min and its rate was doubled stepwise up to a maximum […]. […]

[4] = tested on: patients with CHF; settings: cited from earlier work
[5] = tested on: sensitized and allergen-challenged mice; assay: Aminophylline on acute airway effects of nadolol; assay type: in vivo
Method: Mice were sensitized to the allergen ovalbumin as described in Example 1.
At time point 1 (time=−10 min) baseline airway resistance of the mice was determined. At time point 2 (time=−5 min) methacholine was infused into mice to reach their EC70.

[6] = tested on: Phospholipase C (PLC-β1); assay: Ratio of phospholipase C to actin in cultured tracheal smooth muscle cells (immunoblot); assay type: cell-based; settings: cells from asthmatic mice, chronic high dose treatment
From the text: Cultured tracheal smooth muscle cells were obtained from mice exposed to the following treatments: NS/NC=nonasthmatic, non-challenged mice; S/C=asthmatic mice; Sal.Ac=asthmatic mice, acute salbutamol treatment; Sal.Ch=asthmatic mice, chronic salbutamol treatment; Nad.Ac=asthmatic mice, acute nadolol high dose treatment; and Nad.Ch=asthmatic mice, chronic nadolol high dose treatment.
After airway function experiments, the trachea were surgically removed from anesthetized mice that had been treated with drugs or vehicle. The trachea was minced and the cells plated and grown in culture. The smooth muscle cells grow faster and take over the culture dish. The cells were grown in medium which contained the drugs used in the treatment or vehicle controls. Phospholipase C (PLC-β1) was determined by immunoblotting with an antibody specific for the enzyme. Actin was used as a loading control and the amount of PLC-β1 was expressed as a ratio to actin.
The phospholipase C protein level was measured in these cultured cells and compared with the level of the structural protein actin as a baseline. The enzyme phospholipase C plays a key role in the pathway leading to asthmatic symptoms, as it cleaves a phosphodiester bond in membrane phospholipids, resulting in the formation of a 1,2-diglyceride. […]

[7] = tested on: asthmatic mice; settings: Callaerts-Vegh et al. 2004, cited from earlier work
[8] = target: T1, β2-adrenergic receptor; assay: Immunohistochemistry of β2-adrenergic receptor levels in lungs; assay type: in vivo, mice; design: from tissue; host or cells: fixed lung sections of mice; settings: chronic treatment, versus untreated animals
Method: The mice were sacrificed and the lungs excised. Then the lungs were fixed in 4% paraformaldehyde (45 min, 0° C.). After fixation, lungs were washed in PBS (60 min) and placed in increasing concentrations of sucrose (10% sucrose/5% glycine in PBS for 30 min; 20% sucrose/10% glycine in PBS for 30 min; 30% sucrose/25% glycine in PBS for 12 h at 4° C.). Lungs were embedded in OCT and 12-μm sections cut with a Tissue-Tek II cryostat. The sections were air dried and fixed with 4% paraformaldehyde for 15 min. After 3 washes in PBS, the slides were blocked with 5% milk in PBS for 1 h, and then incubated overnight with anti-β2-adrenergic receptor antibody (1:200, Santa Cruz Biotechnology) in blocking solution. Slides were washed in PBS and incubated with secondary antibody (1:200, Cy3 goat anti-rabbit, 16 h at 4° C.). […] After washing with PBS, coverslips were mounted and viewed by epifluorescent microscopy.

[9] = asthmatic mice, acute: single intravenous bolus 15 minutes before methacholine
[10] = asthmatic mice, chronic administration, 28 days (in chow; salbutamol by osmotic minipump)

COc1ccccc1OCCNCC(O)COc1cccc2[nH]c3ccccc3c12 (centres unmarked) [Carvedilol, carvedilol]
Decreased Raw ([1]; 15 minutes of administration): no | Decreased Raw ([1]; 2 days of administration): no | Decreased Raw ([1]; 28 days of administration): yes | airway responsiveness to methacholine provocation (airway resistance, Raw) [1, 9]: enhanced the airway responsiveness | airway responsiveness to methacholine provocation (airway resistance, Raw) [1, 10]: does reduce airway hyperresponsiveness; also recorded: reduced the responsiveness of asthmatic mice to methacholine provocation; also recorded: providing protection from airway hyperresponsiveness | shift of methacholine dose-airway response relationship ([1]; asthmatic mice, chronic delivery, 28 days): shifts the sensitivity of the responsiveness to methacholine to lower concentrations; also recorded: shifted the methacholine dose-airway response relationship to the left | Increased β2AR density ([2]; 15 minutes of administration): no | Increased β2AR density ([2]; 2 days of administration): no | Increased β2AR density ([2]; 28 days of administration): yes | Increased β2AR density ([2]; 28 days of administration, listed as carvedilol): increase in receptor density | increase of the level of β2-adrenergic receptors over the non-treated mice [2]: over 10 fold | Bmax (receptor density) [2]: 86.3 ± 19.42 femtomoles of sites per milligram of protein | βmax (receptor density) [2]: 904.1 ± 43.46 femtomoles of sites per milligram of protein | bronchoconstriction (airway resistance) [3]: higher bronchoconstriction than these treatments but less than the non-drug treated sensitized and challenged (NTX S/C) mice | clinical outcome (mortality, benefit over placebo) [4]: significant mortality reduction

CC(C)(C)NCC(O)COc1cccc2c1CC(O)C(O)C2 (centres unmarked) [Nadolol, nadolol]
Decreased Raw ([1]; 15 minutes of administration): no | Decreased Raw ([1]; 2 days of administration): yes | Decreased Raw ([1]; 28 days of administration): yes | airway resistance (Raw) ([1]; asthmatic mice, 1 ppm in chow): identical to the untreated mice | airway responsiveness to methacholine provocation (airway resistance, Raw) [1, 9]: enhanced the airway responsiveness | airway responsiveness to methacholine provocation (airway resistance, Raw) [1, 10]: produced a decrease in airway responsiveness; also recorded: providing protection from airway hyperresponsiveness; also recorded: reduced the responsiveness | Increased β2AR density ([2]; 15 minutes of administration): no | Increased β2AR density ([2]; 2 days of administration): yes | Increased β2AR density ([2]; 2 days of administration, listed as nadolol): increase in receptor density | Increased β2AR density ([2]; 28 days of administration): yes | Increased β2AR density ([2]; 28 days of administration, listed as nadolol): increase in receptor density | increase of the level of β2-adrenergic receptors over the non-treated mice [2]: nearly eightfold increase | Bmax (receptor density) [2]: 181.9 ± 48.28 femtomoles of sites per milligram of protein | βmax (receptor density) [2]: 785.5 ± 154.8 femtomoles of sites per milligram of protein | baseline airway resistance ([5]; pretreated 0.72 mg/kg i.p.): same baseline airway resistance | airway resistance upon methacholine challenge ([5]; pretreated 0.72 mg/kg i.p. 15 minutes prior to methacholine, methacholine infused to EC70): ~4.5 units | phospholipase C (ratio of PLC-β1 to actin) [6]: significantly decreases the activity of phospholipase C | airway hyperresponsiveness ([7]; administered acutely): worsens airway hyperresponsiveness | airway hyperresponsiveness ([7]; administered chronically): prevents airway hyperresponsiveness | labeling with anti-β2-adrenergic receptor antibodies in lungs [8]: considerably more intense; also recorded: increase in β-adrenergic receptor density
